The subject of data set [1] is ganglion cells. As to conditions: rat retina explant model, White et al (2015); cited from earlier work.
Data set [2] relates to patients. As to conditions: patients treated chronically; cited from earlier work.
The procedure of data set [3]:
The absorption and biological stability tests were performed with solutions of the peptide-cyclodextrin inclusion compound. To carry out the experiments, 12 normal Wistar rats were used, which had previously cannulated the left femoral artery. […] Four blood draws (1 mL) were carried out, being the first prior to gavage, and the three others within 2, 6 and 24 hours after gavage

The nature of data set [4]: Long-term and accelerated stability study of raw material. Format: physicochemical. How it is done: Stability is defined as the time during which pharmaceutical expertise or even raw material considered alone is maintained within specified limits and throughout the period of storage and use, the same conditions and characteristics that had upon the time of their manufacture.
Stability study was carried out in two conditions, the condition A being at 5° C.±3° C. with no humidity and condition B 25° C.±2° C. with the relative humidity of 60%±5%.

Data set [5] has as its target ACE (Homo sapiens, UniProt P12821). As to conditions: read-out: IC50 for inhibiting ACE; cited from earlier work.
The test system of data set [6] is rats. As to conditions: free (non-encapsulated) peptide, RVLB microinjection, 25-50 ng, previous studies; cited from earlier work.

Chain of ACE (P12821 30-1306, species assumed): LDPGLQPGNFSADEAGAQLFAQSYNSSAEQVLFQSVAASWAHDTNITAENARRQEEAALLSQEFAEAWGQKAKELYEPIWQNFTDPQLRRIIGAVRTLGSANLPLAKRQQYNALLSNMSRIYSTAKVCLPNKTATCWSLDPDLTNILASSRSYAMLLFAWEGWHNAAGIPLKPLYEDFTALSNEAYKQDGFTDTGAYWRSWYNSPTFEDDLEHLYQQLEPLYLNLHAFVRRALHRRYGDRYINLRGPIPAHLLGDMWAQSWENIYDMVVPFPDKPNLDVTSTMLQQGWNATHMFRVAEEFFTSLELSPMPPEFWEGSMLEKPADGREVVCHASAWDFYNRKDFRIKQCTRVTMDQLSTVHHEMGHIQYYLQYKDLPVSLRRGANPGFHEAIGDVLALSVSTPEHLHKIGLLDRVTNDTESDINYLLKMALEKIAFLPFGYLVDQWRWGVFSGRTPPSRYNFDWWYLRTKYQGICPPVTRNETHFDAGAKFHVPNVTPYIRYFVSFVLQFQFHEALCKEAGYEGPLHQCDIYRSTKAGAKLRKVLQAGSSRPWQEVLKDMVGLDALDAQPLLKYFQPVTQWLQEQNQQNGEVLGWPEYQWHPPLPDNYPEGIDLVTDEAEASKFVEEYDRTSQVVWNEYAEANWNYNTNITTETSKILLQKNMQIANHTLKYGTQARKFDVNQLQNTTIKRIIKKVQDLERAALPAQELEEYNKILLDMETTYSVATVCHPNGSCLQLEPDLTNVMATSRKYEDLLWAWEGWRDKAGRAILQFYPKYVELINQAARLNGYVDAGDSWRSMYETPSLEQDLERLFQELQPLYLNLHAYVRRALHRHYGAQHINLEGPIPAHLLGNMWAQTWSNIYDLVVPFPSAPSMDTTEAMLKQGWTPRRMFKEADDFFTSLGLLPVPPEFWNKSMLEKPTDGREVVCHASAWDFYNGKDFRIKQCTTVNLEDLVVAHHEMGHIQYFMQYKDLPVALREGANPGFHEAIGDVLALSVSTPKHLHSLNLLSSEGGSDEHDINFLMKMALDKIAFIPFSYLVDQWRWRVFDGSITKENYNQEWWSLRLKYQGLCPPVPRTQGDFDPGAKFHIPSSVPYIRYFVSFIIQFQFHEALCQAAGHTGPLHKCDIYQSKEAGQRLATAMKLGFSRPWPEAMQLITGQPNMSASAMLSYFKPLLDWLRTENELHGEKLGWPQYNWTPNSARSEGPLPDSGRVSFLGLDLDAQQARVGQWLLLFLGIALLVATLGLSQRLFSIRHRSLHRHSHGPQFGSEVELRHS

With Angiotensin II, in data set [1], the “reduction of survival of ganglion cells” value is listed as 40%.
Turning to `CCOC(=O)[C@H](CCc1ccccc1)N[C@@H](C)C(=O)N1CCC[C@H]1C(=O)O` [enalapril], the “reduction of the risk of dementia” value in data set [2] is listed as 55%.
For the molecule `CCCCC1=NC2(CCCC2)C(=O)N1Cc1ccc(-c2ccccc2-c2nnn[nH]2)cc1` [irbesartan], the “survival of ganglion cells” value in data set [1] is listed as “doubled”.
For `CCC[C@H](N[C@@H](C)C(=O)N1[C@H](C(=O)O)C[C@@H]2CCCC[C@@H]21)C(=O)OCC` [perindopril], the “reduction of the risk of dementia” value in data set [2] is recorded as 34%.
As for `CC[C@H](C)[C@H](NC(=O)[C@H](Cc1ccc(O)cc1)NC(=O)[C@@H](NC(=O)[C@H](CCCNC(=N)N)NC(=O)[C@@H](N)CC(=O)O)C(C)C)C(=O)N[C@@H](Cc1c[nH]cn1)C(=O)N1CCC[C@H]1C(=O)O` [SEQ ID NO: 1, Asp-Arg-Val-Tyr-Ile-His-Pro], the “increase in plasma concentration, times less than with SEQ ID NO: 1 βcyclodextrin” value in data set [3] (6 hours after gavage) is on record as “about 8 times”. The same molecule had a level at 6 h in data set [3] (rat, in vivo, po, 10 ug/50 ul) of 0.086 ± 0.013 ng/mL. Moreover, in data set [4] (5° C.±3° C., no humidity), the “time for which the raw material is stable, long-term condition” value was 36 months. In data set [4] (25° C.±2° C., 60% relative humidity), the “time for which the raw material is stable, accelerated condition” value was found to be 6 months. Also, the IC50 – broadly, the point on the concentration scale where inhibition reaches its midpoint – in data set [5] was roughly 1000 nM. In addition, in data set [6], the “duration of pressor effect” value is on record as “approximately 10 min” and the “increase in arterial pressure” value is on record as 15 mmHg.

(Values after patent US20190328828A1, “PHARMACEUTICAL COMPOSITION, PROCESS FOR PRODUCING THE SAME, USE OF A PEPTIDE, USE OF A PHARMACEUTICAL COMPOSITION AND METHOD FOR TREATING DISEASES ASSOCIATED WITH INTRAOCULAR HYPERTENSION OR GLAUCOMA” (UNIAO QUIMICA FARMACEUTICA NACIONAL S/A, priority 2017, published 2019).)
